In patent US7629471B2, “Transcriptional factor, process for producing the same and use thereof” (NRL Pharma, Inc., priority 2003, dated 2009):
Values joined by “and” are separate entries in the source; they are usually repeats but may differ in a detail not shown here. Equal entries are not always repeated. Where two headings read alike, the source gives them in different places. Marks after values point to notes of the source that are not given here.

Experiments:
[1] = system: rodents; conditions: rodents (mice, rats); cited from earlier work
[2] = system: rodents; conditions: cited from earlier work
[3] = system: hypertensive rat models; conditions: cited from earlier work
[4] = system: ICR male mice; assay type: in vivo; conditions: added at 0.1% to feed, 1 week; control group 143
Excerpt: Fifty ICR male mice (5 weeks of age) were randomly divided into 5 groups of 10 animals each and housed in polycarbonate cages at 5 animals per cage. […] […] After 1 week, the blood was collected from the heart of each mouse to determine the level of serum total cholesterol by an enzymatic method.

[5] = system: Male ICR mice; assay: Effect on serum total cholesterol: in-feed vs forced oral administration (Table 1); assay type: in vivo; conditions: 1 week, n = 6, tested in triplicate
Excerpt: In contrast, the solubility of Compound-1 in water is as extremely low as about 0.7 g/l; Compounds-1 and -2 are poles apart in terms of solubility in water. […] However, even when both compounds are simply mixed in a mechanical manner into feed in an amount of 0.1% or even when both compounds are given for forced oral administration in the same drug amount calculated from feed intake, there is no reproducibility in their efficacy unlike the case where their acetone solutions are sprayed over feed.

[6] = system: db/db mice; assay: Urinary sugar excretion in db/db mice: in-feed vs forced oral administration (Table 1); assay type: in vivo; conditions: for % Reduction of urinary sugar excretion: n = 4, tested in triplicate
[7] = Solubility in water
[8] = cited from earlier work
[9] = system: C57BL/ksj db/db mice; assay: Effect on genetically obese diabetic mice: urinary sugar excretion (Example 6); assay type: in vivo
Method: A solution of Compound-16 (1 g) in acetone (about 50 ml) was sprinkled over and mixed well with 1 kg of rodent standard feed (CE-2, CLEA Japan, Inc., Japan), followed by air-drying in a chamber. The content of Compound-16 in this feed was about 0.1%. In the same manner, pellet chow samples containing 0.05% to 0.025% of Compound-16 were prepared and used for the experiment. To prepare control feed, the same powder feed was sprinkled with acetone and palletized. Twenty male db/db mice (8 weeks of age after birth) were randomly divided into 4 groups. Each group was housed in a cage for urine collection and fed with the Compound-16-containing feed or the control feed for 21 days. During the housing, the mice were allowed to take feed and water ad libitum and their urine was collected at the intervals indicated in Table 1 to determine urinary sugar excretion by an enzymatic method. The level of urinary sugar excretion was expressed as the mean per animal.

[10] = target: T1, aromatase (Homo sapiens, UniProt P11511); conditions: cited from earlier work
T1 sequence (P11511 1-503): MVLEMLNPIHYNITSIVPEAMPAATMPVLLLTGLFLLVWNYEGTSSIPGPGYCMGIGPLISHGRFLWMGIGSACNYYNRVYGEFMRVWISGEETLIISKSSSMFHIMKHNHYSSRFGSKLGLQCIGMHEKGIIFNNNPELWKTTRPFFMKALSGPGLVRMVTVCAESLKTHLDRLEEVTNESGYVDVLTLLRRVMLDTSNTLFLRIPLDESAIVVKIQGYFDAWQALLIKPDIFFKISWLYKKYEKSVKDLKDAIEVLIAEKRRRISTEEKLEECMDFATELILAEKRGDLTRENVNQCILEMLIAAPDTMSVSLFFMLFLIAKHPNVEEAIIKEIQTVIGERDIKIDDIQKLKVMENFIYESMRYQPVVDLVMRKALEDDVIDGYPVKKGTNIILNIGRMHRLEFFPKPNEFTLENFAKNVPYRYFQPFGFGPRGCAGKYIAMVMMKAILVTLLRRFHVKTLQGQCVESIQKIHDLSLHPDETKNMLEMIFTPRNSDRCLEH

[11] = system: animal virus; conditions: without affecting nucleic acid and protein biosynthesis; cited from earlier work
[12] = system: arthritis in rats induced by adjuvant injection; conditions: adjuvant injection into footpads; cited from earlier work
[13] = system: mice starved for a 48-hour period; conditions: trace amount by oral route 2 hours before feed intake; 2-hour intake time; mice starved 48 hours; cited from earlier work
[14] = system: Ras farnesylation; conditions: cited from earlier work
[15] = Mechanical mixing into feed, 0.1%
[16] = Spraying of acetone solution over feed, 0.1% in feed

SMILES: C/C(=C\Cc1c(O)c(Cl)c(C)c(C=O)c1O)CC/C=C(\C)[C@@H]1CC(=O)C(C)(C)O1 [ascofuranone]
- Serum cholesterol lowering [1]: serum cholesterol-lowering effect
- Anticancer effect [2]: anticancer effect
- Progression to renal failure [3]: prevent hypertensive rat models from entering renal failure

SMILES: CC(=O)N[C@@H](CCCCN=Cc1c(C)c(Cl)c(OCC(=O)O)c(C/C=C(C)/C=C/[C@@]2(C)[C@H](C)CCC(=O)[C@@H]2C)c1O)C(=O)O [Compound-19]
- Serum total cholesterol [4]: 95** mg/dl

SMILES: COc1c(Cl)c(C)c(C=O)c(O)c1C/C=C(C)/C=C/[C@@]1(C)[C@H](C)CCC(=O)[C@@H]1C [Compound-1, 4-O-methylascochlorin]
- Decrease in serum cholesterol levels ([5]; Forced oral administration, same drug amount calculated from feed intake): No decrease in all three
- Decrease in serum cholesterol levels [5, 15]: No decrease in all three tests
- Decrease in serum cholesterol levels [5, 16]: 15.2%-25.1% decrease, P < 0.01
- % Reduction of urinary sugar excretion [6, 15]: No inhibitory effect is observed
- Progression to renal failure [3]: prevent hypertensive rat models from entering renal failure
- Solubility in water [7]: about 0.7 g/l
- Solubility in water (in words) [7]: substantially insoluble in water
- Absorption from the digestive tract ([8]; orally administered to small animals (rats, mice) in the fasting state): most of them pass through the digestive tract without being absorbed

SMILES: CC(/C=C/[C@@]1(C)[C@H](C)CCC(=O)[C@@H]1C)=C\Cc1c(O)c(Cl)c(C)c(C=NCC(N)=O)c1O [Compound-13]
- Serum total cholesterol [4]: 112** mg/dl

SMILES: CC(C=CC1(C)C(C)CCC(=O)C1C)=CCc1c(O)c(C=O)c(C)c(Cl)c1OCC(=O)O (centres unmarked) [Compound-2, 4-O-carboxymethylascochlorin]
- Decrease in serum cholesterol levels [5, 16]: 17.5%-22.7% decrease, P < 0.01
- Toxic death ([6]; Forced oral administration, db/db mice, deaths/animals in first, second, third test): 2/4 in the first test and 1/4 in the second test and 1/4 in the third test
- % Reduction of urinary sugar excretion ([6]; Forced oral administration): Not effective
- Body weight gain ([6]; Mechanical mixing into feed, db/db mice): body weight gain is inhibited.
- Amount dissolved in water ([7]; in the small intestine (pH 7.2 to 7.4)): ≥ 6%

SMILES: CC(=O)N[C@@H](CCCCN=Cc1c(C)c(Cl)c(O)c(C/C=C(C)/C=C/[C@@]2(C)[C@H](C)CCC(=O)[C@@H]2C)c1O)C(=O)O [Compound-16]
- Level of urinary sugar excretion ([9]; 0.025% in feed, 0 days (24 h urine beginning 1 day before initiation, baseline)): 890 mg/mouse/day
- Level of urinary sugar excretion ([9]; 0.025% in feed, 1 day): 600 mg/mouse/day
- Level of urinary sugar excretion ([9]; 0.025% in feed, 3 days): 452 mg/mouse/day
- Level of urinary sugar excretion ([9]; 0.025% in feed, 7 days): 175 mg/mouse/day
- Level of urinary sugar excretion ([9]; 0.025% in feed, 14 days): 201 mg/mouse/day
- Level of urinary sugar excretion ([9]; 0.025% in feed, 21 days): 134 mg/mouse/day
- Level of urinary sugar excretion ([9]; 0.05% in feed, 0 days (24 h urine beginning 1 day before initiation, baseline)): 786 mg/mouse/day
- Level of urinary sugar excretion ([9]; 0.05% in feed, 1 day): 541 mg/mouse/day
- Level of urinary sugar excretion ([9]; 0.05% in feed, 3 days): 231 mg/mouse/day
- Level of urinary sugar excretion ([9]; 0.05% in feed, 7 days): 253 mg/mouse/day
- Level of urinary sugar excretion ([9]; 0.05% in feed, 14 days): 170 mg/mouse/day
- Level of urinary sugar excretion ([9]; 0.05% in feed, 21 days): 52 mg/mouse/day
- Level of urinary sugar excretion ([9]; 0.1% in feed, 0 days (24 h urine beginning 1 day before initiation, baseline)): 814 mg/mouse/day
- Level of urinary sugar excretion ([9]; 0.1% in feed, 1 day): 187 mg/mouse/day
- Level of urinary sugar excretion ([9]; 0.1% in feed, 3 days): 30 mg/mouse/day
- Level of urinary sugar excretion ([9]; 0.1% in feed, 7 days): 15 mg/mouse/day
- Level of urinary sugar excretion ([9]; 0.1% in feed, 14 days): 10 mg/mouse/day
- Level of urinary sugar excretion ([9]; 0.1% in feed, 21 days): 10 mg/mouse/day

SMILES: CC(/C=C/[C@@]1(C)[C@H](C)C=CC(=O)[C@@H]1C)=C\Cc1c(O)c(Cl)c(C)c(C=O)c1O [cylindrochlorin]
- Serum cholesterol lowering [1]: stronger effect of lowering serum cholesterol
- Aromatase inhibition [10]: strong inhibitory substance

SMILES: CC(C=C[C@]1(C)[C@H](C)C(=O)CC[C@@H]1C)=CCc1c(O)c(Cl)c(C)c(C=O)c1O [Ascochlorin, 3-[5-[1(R),2(S),6(S)-trimethyl-3-oxocyclohexyl]-3-methyl-2,4-pentadienyl]-2,4-dihydroxy-5-chloro-6-methylbenzaldehyde]
- Serum cholesterol lowering [1]: effect of lowering serum cholesterol
- Animal virus growth [11]: arrests animal virus growth
- Inflammatory swelling [12]: alleviating inflammatory swelling
- Anorectic effect (feed intake) [13]: half inhibition of feed intake
- Inhibition of Ras farnesylation [14]: inhibited Ras farnesylation
- Absorption from the digestive tract ([8]; in vivo, po): most of them pass through the digestive tract without being absorbed
